Laboratory results: US9029419B2, “Use of zinc N-acetyltaurinate” (TRI-INOV, priority 2008, dated 2015)
Where two headings read alike, the source gives them in different places.

Legend:
[1] = tested on: ARPE-19 cells; assay: Comparative assay No. 2: cytoprotective effect in oxidizing medium (H2O2); type: cell-based, human; conditions: for protection against oxidative stress (ATP production): then H2O2 700 μM for 24 hours; for effect on the production of ATP by ARPE-19 cells treated and then exposed to H2O2: summary statement
Procedure: The cells were then subjected, for 24 hours, to treatment with aqueous hydrogen peroxide solution at 700 μM.

[2] = tested on: ARPE-19 cells; assay: Comparative assay No. 1: effective doses of taurine and ZnSO4, ARPE-19 cell proliferation; type: cell-based, human
Procedure: (§1) In the assays hereinafter described, the ARPE-19 human retinal pigmented epithelial cell line was used.
(§2) ARPE-19 cells grown in an appropriate medium [mixture of DMEM [Dulbecco's modified Eagle's medium) and Ham's F12 medium] containing 10% of heat-inactivated fetal calf serum; 2 mM glutamine; 0.1 mM of minimum essential medium; a solution of non-essential amino acids and gentamicin sulfate, in 96-well microplates, were exposed to various concentrations of an aqueous hydrogen peroxide solution (H2O2) being toxic for these cells. The cellular levels of ATP were measured using the commercially available assay which measures ATP production, “ATPLite-M”, manufactured by Perkin Elmer, using a multiplate reader from Perkin Elmer Life Sciences, Boston, Mass. This assay is based on the principle that ATP production is dependent on cell viability and that a decrease or increase in ATP reflects a corresponding alteration in cell viability.
In this assay, the effect of taurine or of N-acetylated taurine and of zinc sulfate on ARPE-19 cell proliferation was compared.

[3] = tested on: lipofuscin accumulation; assay: Intracellular accumulation of lipofuscin in retina, prostate and hippocampus of aged rats (fluorescence image analysis); type: in vivo, Sprague-Dawley albino rats; conditions: 40 mg/kg per os once a day for 4 weeks, vs control animals (carrier)
Procedure: The activity of ATA-Zn on aging was measured by determining the amount of lipofuscin in certain tissues in aged rats (retina, prostate and hippocampus).
Male Sprague-Dawley albino rats, aged 16 months, were placed in standard plastic cages, in groups of 5, with water and food ad libitum. The living conditions of the animals were the following: day:night light cycle, 12:12 h, constant temperature of 22±2° C. and relative humidity of 60%.
For the chronic treatment, ATA-Zn was administered to the rats, per os, once a day, for 4 weeks, at the dose of 40 mg/kg (n=6). The control animals received only water (carrier) for the same period of time (n=6). 24 hours after the end of the treatment, the rats were anesthetized with equithesin ([…], i.p.) and perfused transcardially with 1% paraformaldehyde and 1.25% glutaraldehyde in a 0.1% sodium cacodylate buffer (pH 7.4) obtained from arsenous anhydride and potassium acetate.
The samples of the tissues taken (retina, prostate and hippocampus) were then cut into small pieces (1 mm^3) on a cryostat and added to a mixture of formaldehyde and glutaraldehyde in a cacodylate buffer for 2 hours. The samples were then mixed with osmium tetroxide, dehydrated in increasing concentrations of acetone and toluene and, finally, embedded into blocks of resin (EPON resin). The pieces of tissues thus processed were examined under an Olympus BX-60 fluorescence microscope.
The fluorescence in all the tissues was quantified using an image analysis system (KS 300; Karl Zeiss). The analysis was carried out by measuring the percentage surface area hidden by the presence of fluorescence and compared with a standard zone of 2000 μm^2 (lipofuscin fluorescence expressed as % surface area relative to the standard zone) using an ×40 objective magnification and a Zeiss Sound Vision digital microscope video camera (total enlargement on the computer screen ×7500). The values measured in the areas with no fluorescence in the pieces of tissues were subtracted, as background noise, from the resulting binary image. […]

[4] = tested on: ARPE-19 cells; assay: Comparative assay No. 3: comparison with the known antioxidants DHA, lutein and zeaxanthin; type: cell-based, human
Procedure: as §1, §2
(§3) The protective effect of ATA-Zn was assayed by treating the ARPE-19 cells with ATA-Zn and subsequently exposing them to the aqueous hydrogen peroxide solution. […] The results of these assays are reported in FIGS. 5 to 9, which are graphs showing the ATP production, expressed as a percentage relative to the ATP production by control cells (having received only the carrier) as a function of the concentrations of H2O2, of ATA-Zn or of the comparative substances. […]

[5] = Solubility of the prepared product; type: physicochemical; conditions: white powder
[6] = tested on: ARPE-19 cells; assay: Assay 3: cytoprotective effect of ATA-Zn on cells subjected to various concentrations of H2O2; type: cell-based, human; conditions: 10^−8 M, one and a half hours before exposure to H2O2
Procedure: as §1
(§4) In order to assess the protective role of ATA-Zn with respect to an oxidative stress of the retinal epithelium, the following experimental model was used.
(§5) ARPE-19 cells grown in an appropriate medium [mixture of DMEM [Dulbecco's modified Eagle's medium) and Ham's F12 medium] containing 10% of heat-inactivated fetal calf serum; 2 mM glutamine; 0.1 mM of minimum essential medium; a solution of non-essential amino acids and gentamicin sulfate, in 96-well microplates, were exposed to various concentrations of an aqueous hydrogen peroxide solution (H2O2) being toxic for these cells. The cellular levels of ATP were measured using the commercially available assay which measures ATP production, “ATPLite-M”, manufactured by Perkin Elmer, using a multiplate reader from Perkin Elmer Life Sciences, Boston, Mass. […]
as §3

[7] = tested on: ARPE-19 cells; assay: Assay 1: effective doses of ATA-Zn and its toxicity, ATP production (ATPLite-M); type: cell-based, human; conditions: 24 hours after addition
Procedure: as §1, §5
The ARPE-19 cells were treated with various concentrations of ATA-Zn (10^−3 to 10^−9 M) dissolved in a carrier consisting of a serum-free culture medium containing 0.01% of DMSO (concentration known not to affect cell viability). The ATP production by the ARPE-19 cells thus treated was determined 24 hours after the addition of ATA-Zn. The ATP production by control cells treated only with the serum-free culture medium containing 0.01% of DMSO (carrier) was also determined.

[8] = tested on: ARPE-19 cells; assay: Assay 2: anti-oxidative stress cytoprotective effect, ATP production after H2O2; type: cell-based, human; conditions: 1.5 hours before H2O2 700 μm
Procedure: as §1, §4, §2
The protective effect of ATA-Zn was assayed by treating the ARPE-19 cells with ATA-Zn and subsequently exposing them to the aqueous hydrogen peroxide solution. Various exposure times and various doses were used. Comparative assays were also carried out. The results of these assays are reported in FIGS. 5 to 9, which are graphs showing the ATP production, expressed as a percentage relative to the ATP production by control cells (having received only the carrier) as a function of the concentrations of H2O2, of ATA-Zn or of the comparative substances.
In this assay, the concentrations of ATA-Zn which induce a significant ATP production via the ARPE-19 cells were used, and then, after 1.5 hours, the cells were subjected to a treatment with H2O2 at the toxic dose of 700 μm.

Row | Compound | protection against oxidative stress (ATP production) ([1]; pretreatment) | effect on the production of ATP by ARPE-19 cells treated and then exposed to H2O2 [1] | proliferative effect on the ARPE-19 cells ([2]; 2 mM and 10^−8 M) | protection against oxidative stress (ATP production) ([1]; 30 μM pretreatment) | protection against oxidative stress (ATP production) ([1]; 10^−8 M pretreatment) | proliferative effect on the ARPE-19 cells ([2]; 30 μM and 10^−8 M) | lipofuscin fluorescence (% surface area) in the hippocampus [3] | lipofuscin fluorescence (% surface area) in the prostate [3] | lipofuscin fluorescence (% surface area) in the retina [3] | effect on ATP production compared with DHA, lutein and zeaxanthin [4] | effect on ATP production compared with DHA, lutein and zeaxanthin ([4]; listed as zinc N-acetyltaurinate) | solubility in ethanol [5] | solubility in water [5] | protection against oxidative stress induced by various concentrations of H2O2 (ATP production) [6] | ATP production / cell viability (toxicity) ([7]; 10^−3 M) | ATP production / cell viability ([7]; 10^−9 M, 10^−8 M and 10^−7 M) | protection against oxidative stress (ATP production) ([8]; 10^−7 M) | protection against oxidative stress (ATP production) ([8]; 10^−8 M) | protection against oxidative stress (ATP production) ([8]; 10^−9 M)
1 | NCCS(=O)(=O)O [taurine] | not capable of protecting the cells | no effect | neither zinc sulfate nor taurine at the various concentrations used were capable of inducing a significant proliferative effect |  |  |  |  |  |  |  |  |  |  |  |  |  |  |  | 
2 | O=S(=O)([O-])[O-].[Zn+2] [zinc sulfate] |  | no effect |  | not capable of protecting the cells | protective effect which is less than that of ATA-Zn | neither zinc sulfate nor taurine at the various concentrations used were capable of inducing a significant proliferative effect |  |  |  |  |  |  |  |  |  |  |  |  | 
3 | zinc N-acetyltaurinate [ATA-Zn] | protect the ARPE-19 cells against oxidative stress | has an effect |  |  |  |  | significant reduction | significant reduction | significant reduction | effect comparable to the known antioxidants | virtually identical to or even greater than | poorly soluble in ethanol | soluble in water | capable of protecting the ARPE-19 cells against oxidative stress | toxic | capable of inducing an increase in cell viability | potentiates the toxic effect of H2O2 | capable of protecting the cells against oxidative stress | not effective
